Measurements taken from BindingDB's records for doi:10.7270/Q29K48M5 (University of Pittsburgh, 2007).

What follows are compounds tested against T1, M-phase inducer phosphatase 2 (Homo sapiens, UniProt P30305) (assay: Cdc25B catalytic domain phosphatase inhibitors, dose response, biochemical, 25 mM DTT, probe assessment (AID 649)).
T1 sequence (P30305 whole entry): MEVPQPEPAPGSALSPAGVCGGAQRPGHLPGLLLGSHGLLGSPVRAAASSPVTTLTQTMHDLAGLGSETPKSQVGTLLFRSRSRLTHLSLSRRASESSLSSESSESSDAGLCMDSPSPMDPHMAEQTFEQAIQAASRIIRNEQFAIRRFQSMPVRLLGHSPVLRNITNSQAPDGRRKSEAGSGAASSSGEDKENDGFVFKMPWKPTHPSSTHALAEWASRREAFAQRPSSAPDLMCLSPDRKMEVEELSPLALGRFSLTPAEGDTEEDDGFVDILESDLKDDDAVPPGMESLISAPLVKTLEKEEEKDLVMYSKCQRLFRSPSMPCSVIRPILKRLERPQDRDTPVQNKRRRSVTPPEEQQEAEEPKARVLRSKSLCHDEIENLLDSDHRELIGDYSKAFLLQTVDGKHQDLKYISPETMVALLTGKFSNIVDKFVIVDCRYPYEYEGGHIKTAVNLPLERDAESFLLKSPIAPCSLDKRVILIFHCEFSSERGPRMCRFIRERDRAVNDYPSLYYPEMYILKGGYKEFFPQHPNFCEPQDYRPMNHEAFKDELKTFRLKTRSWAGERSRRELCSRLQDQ

Structure (SMILES)	IC50
O=C(Nc1ccc2nc(-c3ccco3)c(-c3ccco3)nc2c1)N1CCCCCC1	39.8 µM
Cc1ccc2c(c1C)NC(C(=O)O)C1CC=CC21 (stereo not drawn)	17.7 µM
O=C(O)C1Nc2c(O)cccc2C2C=CCC12 (stereo not drawn)	12.8 µM
Cn1ncnc2c(=O)n(C)c(=O)nc1-2	34.5 µM
[O-]/[N+](=C\c1ccncc1)c1ccccc1	> 50 µM
COc1cccc2c(C)c(C(=O)O)[nH]c12	10.9 µM
O=C1C=Cc2ccccc2C1=O [1,2-dihydronaphthalene-1,2-dione]	> 50 µM
CCn1nc(-c2ccccc2)nc2c(=O)n(C)c(=O)nc1-2 [1-Ethyl-6-methyl-3-phenyl-1H-pyrimido[5,4-e][1,2,4]triazine-5,7-dione]	21.1 µM
[O-]/[N+](=C\c1ccc(OC(F)F)cc1)c1ccccc1 [1-[4-(difluoromethoxy)phenyl]-N-phenylmethanimine oxide]	> 50 µM
CCn1nc(-c2cccs2)nc2c(=O)n(C)c(=O)nc1-2 [1-ethyl-6-methyl-3-thiophen-2-yl-pyrimido[5,4-e][1,2,4]triazine-5,7-dione]	17.2 µM
O=C1Cc2ccccc2C(=O)N1CCc1ccccc1 [2-(2-phenylethyl)-4H-isoquinoline-1,3-dione]	> 50 µM
N#Cc1c(N)sc(=S)c2c1CCN(Cc1ccccc1)C2 [3-Amino-7-benzyl-1-thioxo-5,6,7,8-tetrahydro-1H-thiopyrano[3,4-c]pyridine-4-carbonitrile]	49.3 µM
Cc1ccccc1Nc1cc2ccccc2c(O)n1 [3-[(2-methylphenyl)amino]-2H-isoquinolin-1-one]	42.3 µM
COc1ccc(Br)cc1C=c1sc2nc(-c3ccco3)nn2c1=O [5-[(5-bromanyl-2-methoxy-phenyl)methylidene]-2-(furan-2-yl)-[1,3]thiazolo[3,2-b][1,2,4]triazol-6-one]	14.7 µM
CC(=O)Nc1cc(OC(C)=O)c2nonc2c1OC(C)=O [Acetic acid 7-acetoxy-5-acetylamino-benzo[1,2,5]oxadiazol-4-yl ester]	> 50 µM
c1ccc(CSc2nnc(-c3ccco3)c(-c3ccco3)n2)cc1 [MLS-0029114.0001]	> 50 µM
Cc1ccc2c(c1)C1C=CCC1C(C(=O)O)N2 (stereo not drawn) [MLS-0067149.0001]	11.4 µM
O=C(NC1(O)C(=O)c2ccccc2C1=O)c1ccccc1 [N-(2-hydroxy-1,3-dioxo-2-indenyl)benzamide]	> 50 µM
Nc1cccc2cnccc12 [isoquinolin-5-amine]	> 50 µM

Next, values leading:

IC50	Structure (SMILES)
> 50 µM	CCOC(=O)C(C(=O)OCC)c1cc(Br)c2noc3c2c1C(=O)c1ccccc1-3 [MLS000038842]
48 µM	Oc1nc(Nc2ccccc2)cc2ccccc12 [MLS000043701]
> 50 µM	O=C1C=Cc2ccccc2/C1=C/NC12CN3CCN(CN(C3)C1)C2 [MLS000071484]
> 50 µM	Cc1c(N=c2c(=O)c3ccccc3c2=O)c(=O)n(-c2ccccc2)n1C [MLS000105950]
> 50 µM	CCOc1ccc2noc3c2c1C(=O)c1ccccc1-3 [MLS000106837]
> 50 µM	COc1ccc2noc3c2c1C(=O)c1ccccc1-3 [MLS000106874]
11.7 µM	COc1cccc2c1NC(C(=O)O)C1CC=CC21 (stereo not drawn) [SMR000009698]
7.42 µM	O=C(OC1CCCCC1)c1ccc2c(c1)C1C=CCC1C(C(=O)O)N2 (stereo not drawn) [SMR000019385]
> 50 µM	N#Cc1c(N2CCCC2)nc(N)c2c(N)nc(N3CCCC3)cc12 [SMR000061605]
